Patent US20240018157A1, “CYCLIC COMPOUNDS AND METHODS OF USING SAME” (Schrödinger, Inc., priority 2019, published 2024)

Target: full-length MALT1 protein His-MALT1(1-824) (Homo sapiens (Human), UniProt Q9UDY8)
Assay: MALT1 protease assay, Assay 2 (1 nM MALT1, Ac-LRSR-AMC substrate)
Assay type: biochemical
Settings: 1 nM MALT1, 50 μM Ac-LRSR-AMC, 2 h pre-incubation, 8 hr incubation at RT
Protocol: MALT1 protease activity was assessed in an in vitro assay using a tetrapeptide as substrate and full-length MALT1 protein His-MALT1(1-824) purified from baculovirus-infected insect cells.
The final assay buffer includes 1 nM (Assay 2) or 2 nM (Assay 1) of MALT1 full-length protein, 50 μM Ac-LRSR-AMC substrate, 50 mM Tris pH 7.5, 600 mM Sodium Citrate, 1 mM DTT, 1 mM EDTA, and 0.05% BSA in 384-well plate format using black microtiter square well plates (Optiplate 384-F, Perkin Elmer).
Test compounds were dissolved in 100% DMSO at stock of 10 mM, with final DMSO concentration 0.1%. Test compounds were pre-incubated with MALT1 protein for 2 h at room temperature. Substrate was added after the pre-incubation and fluorescence signal was measured using Envision at excitation 355 nm and emission 460 nm after 8 hr incubation at RT.
The fluorescence units were transformed to percentage of remaining activity by using the high control (HC, median of fluorescence signal from wells containing MALT1 protein, substrate, and DMSO) and low control (LC, median of fluorescence signal from wells with substrate only) with the formula below: […]
IC50 and Hill coefficient were obtained using Graph Pad Prism (Graph Pad software, Inc, USA) with non-linear regression analysis.

Sequence of full-length MALT1 protein His-MALT1(1-824) (Q9UDY8 whole entry): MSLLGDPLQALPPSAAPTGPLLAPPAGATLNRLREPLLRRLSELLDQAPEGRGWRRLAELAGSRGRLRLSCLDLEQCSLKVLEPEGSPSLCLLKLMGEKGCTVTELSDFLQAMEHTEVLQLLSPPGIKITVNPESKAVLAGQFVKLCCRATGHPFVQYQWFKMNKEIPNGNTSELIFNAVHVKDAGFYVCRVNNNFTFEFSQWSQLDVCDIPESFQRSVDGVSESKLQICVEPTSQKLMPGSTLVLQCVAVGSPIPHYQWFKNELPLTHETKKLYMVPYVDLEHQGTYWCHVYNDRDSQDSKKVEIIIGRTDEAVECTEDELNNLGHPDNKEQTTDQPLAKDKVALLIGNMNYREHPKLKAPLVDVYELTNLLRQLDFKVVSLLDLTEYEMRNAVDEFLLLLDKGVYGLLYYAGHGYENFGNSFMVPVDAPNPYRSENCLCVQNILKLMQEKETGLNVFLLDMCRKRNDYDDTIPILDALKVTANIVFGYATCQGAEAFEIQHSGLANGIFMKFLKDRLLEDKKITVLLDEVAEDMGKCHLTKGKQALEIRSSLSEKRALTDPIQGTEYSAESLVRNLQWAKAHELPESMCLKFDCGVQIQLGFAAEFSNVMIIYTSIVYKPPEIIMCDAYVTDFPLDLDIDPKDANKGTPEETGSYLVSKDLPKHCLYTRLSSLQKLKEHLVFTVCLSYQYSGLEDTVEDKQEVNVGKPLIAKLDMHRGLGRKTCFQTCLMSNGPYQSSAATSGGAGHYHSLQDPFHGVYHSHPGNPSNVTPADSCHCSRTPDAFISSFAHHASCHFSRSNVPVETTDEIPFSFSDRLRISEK

| SMILES | IC50 [nM] |
| --- | --- |
| CC(C)(O)c1cnn(-c2ncc(NC(=O)N3C[C@@](C)(C(F)(F)F)c4c3cnc3cc(Cl)nn43)cc2Cl)n1 [compound 180, (R)-2-chloro-N-(5-chloro-6-(4-(2-hydroxypropan-2-yl)-2H-1,2,3-triazol-2-yl)pyridine-3-yl)-8-methyl-8-(trifluoromethyl)-7,8-dihydro-6H-pyrazolo[1,5-a]pyrrolo[2,3-e]pyrimidine-6-carboxamide] | 100 to 1000 |
| CC(C)(O)Cn1ccc(-c2ncc(NC(=O)N3C[C@@](C)(C(F)(F)F)c4c3cnc3cc(F)nn43)cc2C(F)F)n1 [compound 162, (R)-N-(5-(difluoromethyl)-6-(1-(2-hydroxy-2-methylpropyl)-1H-pyrazol-3-yl)pyridin-3-yl)-2-fluoro-8-methyl-8-(trifluoromethyl)-7,8-dihydro-6H-pyrazolo[1,5-a]pyrrolo[2,3-e]pyrimidine-6-carboxamide] | 10 to 100 |
| COc1nc(OC2CN(C)C2)c(NC(=O)N2C[C@@](C)(C(F)(F)F)c3c2cnc2cc(Cl)nn32)cc1Cl [compound 81, (R)-2-chloro-N-(5-chloro-6-methoxy-2-((1-methylazetidin-3-yl)oxy)pyridin-3-yl)-8-methyl-8-(trifluoromethyl)-7,8-dihydro-6H-pyrazolo[1,5-a]pyrrolo[2,3-e]pyrimidine-6-carboxamide] | 100 to 1000 |
| CC(C)(O)c1cc(NC(=O)N2C[C@@](C)(C(F)(F)F)c3c2cnc2cc(Cl)nn32)cc(C(F)(F)F)n1 [compound 78, (R)-2-chloro-N-(2-(2-hydroxypropan-2-yl)-6-(trifluoromethyl)pyridin-4-yl)-8-methyl-8-(trifluoromethyl)-7,8-dihydro-6H-pyrazolo[1,5-a]pyrrolo[2,3-e]pyrimidine-6-carboxamide] | 100 to 1000 |
| C[C@@]1(C(F)(F)F)CN(C(=O)Nc2cc(NC3COC3)nc(C(F)(F)F)c2)c2cnc3cc(Cl)nn3c21 [compound 99, (R)-2-chloro-8-methyl-N-(2-(oxetan-3-ylamino)-6-(trifluoromethyl)pyridin-4-yl)-8-(trifluoromethyl)-7,8-dihydro-6H-pyrazolo[1,5-a]pyrrolo[2,3-e]pyrimidine-6-carboxamide] | 100 to 1000 |
| CNc1cc(NC(=O)N2C[C@@](C)(C(F)(F)F)c3c2cnc2cc(Cl)nn32)cnc1-n1nccn1 [compound 132, (R)-2-chloro-8-methyl-N-(5-(methylamino)-6-(2H-1,2,3-triazol-2-yl)pyridin-3-yl)-8-(trifluoromethyl)-7,8-dihydro-6H-pyrazolo[1,5-a]pyrrolo[2,3-e]pyrimidine-6-carboxamide] | 100 to 1000 |
| C[C@@]1(C(F)(F)F)CN(C(=O)NC2CCC3(CC2)CC3)c2cnc3cc(Cl)nn3c21 [compound 172, (R)-2-chloro-8-methyl-N-(spiro[2.5]octan-6-yl)-8-(trifluoromethyl)-7,8-dihydro-6H-pyrazolo[1,5-a]pyrrolo[2,3-e]pyrimidine-6-carboxamide] | 100 to 1000 |
| CN1CC[C@H](Oc2cc(OC(F)F)cc(NC(=O)N3C[C@@](C)(C(F)(F)F)c4c3cnc3cc(Cl)nn43)n2)C1 [compound 198, (R)-2-chloro-N-(4-(difluoromethoxy)-6-(((S)-1-methylpyrrolidin-3-yl)oxy)pyridin-2-yl)-8-methyl-8-(trifluoromethyl)-7,8-dihydro-6H-pyrazolo[1,5-a]pyrrolo[2,3-e]pyrimidine-6-carboxamide] | 10 to 100 |
| CN1CC(Oc2cc(NC(=O)N3C[C@@](C)(C(F)(F)F)c4c3cnc3cc(Cl)nn43)cc(C(F)(F)F)n2)C1 [compound 121, (R)-2-chloro-8-methyl-N-(2-((1-methylazetidin-3-yl)oxy)-6-(trifluoromethyl)pyridin-4-yl)-8-(trifluoromethyl)-7,8-dihydro-6H-pyrazolo[1,5-a]pyrrolo[2,3-e]pyrimidine-6-carboxamide] | 10 to 100 |
| C[C@]1(C(F)(F)F)CN(C(=O)Nc2cnc(-n3nccn3)c(C#N)c2)c2cnc3cc(F)nn3c21 [compound 90, (S)-N-(5-cyano-6-(2H-1,2,3-triazol-2-yl)pyridin-3-yl)-2-fluoro-8-methyl-8-(trifluoromethyl)-7,8-dihydro-6H-pyrazolo[1,5-a]pyrrolo[2,3-e]pyrimidine-6-carboxamide] | 10 to 100 |
| CC1(C)CN=C(c2ncc(NC(=O)N3C[C@@](C)(C(F)(F)F)c4c3cnc3cc(Cl)nn43)cc2Cl)O1 [compound 118] | 10 to 100 |
| CC(O)c1cc2ncc3c(n2n1)C(C)(C(F)(F)F)CN3C(=O)Nc1cnc(-n2nccn2)c(Cl)c1 (stereo not shown) [compound 80, N-(5-chloro-6-(2H-1,2,3-triazol-2-yl)pyridin-3-yl)-2-(1-hydroxyethyl)-8-methyl-8-(trifluoromethyl)-7,8-dihydro-6H-pyrazolo[1,5-a]pyrrolo[2,3-e]pyrimidine-6-carboxamide] | 100 to 1000 |

Next, values leading:

| IC50 [nM] | SMILES |
| --- | --- |
| 100 to 1000 | C[C@@]1(C(F)(F)F)CN(C(=O)Nc2ccnc(C(F)(F)F)c2F)c2cnc3cc(Cl)nn3c21 [compound 100, (R)-2-chloro-N-(3-fluoro-2-(trifluoromethyl)pyridin-4-yl)-8-methyl-8-(trifluoromethyl)-7,8-dihydro-6H-pyrazolo[1,5-a]pyrrolo[2,3-e]pyrimidine-6-carboxamide] |
| 10 to 100 | Cc1cc(NC(=O)N2C[C@@](C)(C(F)(F)F)c3c2cnc2cc(Cl)nn32)cc(OC[C@H](C)N)n1 [compound 58, (R)-N-(2-((S)-2-aminopropoxy)-6-methylpyridin-4-yl)-2-chloro-8-methyl-8-(trifluoromethyl)-7,8-dihydro-6H-pyrazolo[1,5-a]pyrrolo[2,3-e]pyrimidine-6-carboxamide] |
| 10 to 100 | C[C@@]1(C(F)(F)F)CN(C(=O)Nc2cc(C(F)F)n[nH]2)c2cnc3cc(Cl)nn3c21 [compound 107, (R)-2-chloro-N-(3-(difluoromethyl)-1H-pyrazol-5-yl)-8-methyl-8-(trifluoromethyl)-7,8-dihydro-6H-pyrazolo[1,5-a]pyrrolo[2,3-e]pyrimidine-6-carboxamide] |
| 10 to 100 | C[C@@]1(C(F)(F)F)CN(C(=O)Nc2cc(C(F)(F)F)n[nH]2)c2cnc3cc(Cl)nn3c21 [compound 131, (R)-2-chloro-8-methyl-8-(trifluoromethyl)-N-(3-(trifluoromethyl)-1H-pyrazol-5-yl)-7,8-dihydro-6H-pyrazolo[1,5-a]pyrrolo[2,3-e]pyrimidine-6-carboxamide] |
| 100 to 1000 | CN(C)c1cc(NC(=O)N2C[C@@](C)(C(F)(F)F)c3c2cnc2cc(Cl)nn32)cnn1 [compound 101, (R)-2-chloro-N-(6-(dimethylamino)pyridazin-4-yl)-8-methyl-8-(trifluoromethyl)-7,8-dihydro-6H-pyrazolo[1,5-a]pyrrolo[2,3-e]pyrimidine-6-carboxamide] |
| 100 to 1000 | C[C@@]1(C(F)(F)F)CN(C(=O)Nc2cc(C(F)F)nnc2C#N)c2cnc3cc(Cl)nn3c21 [compound 143, (R)-2-chloro-N-(3-cyano-6-(difluoromethyl)pyridazin-4-yl)-8-methyl-8-(trifluoromethyl)-7,8-dihydro-6H-pyrazolo[1,5-a]pyrrolo[2,3-e]pyrimidine-6-carboxamide] |
| 100 to 1000 | Cn1cc(NC(=O)N2C[C@@](C)(C(F)(F)F)c3c2cnc2cc(Cl)nn32)cn1 [compound 164, (R)-2-chloro-8-methyl-N-(1-methyl-1H-pyrazol-4-yl)-8-(trifluoromethyl)-7,8-dihydro-6H-pyrazolo[1,5-a]pyrrolo[2,3-e]pyrimidine-6-carboxamide] |
| 100 to 1000 | C[C@@]1(C(F)(F)F)CN(C(=O)Nc2cc(C(F)F)on2)c2cnc3cc(Cl)nn3c21 [compound 102, (R)-2-chloro-N-(5-(difluoromethyl)isoxazol-3-yl)-8-methyl-8-(trifluoromethyl)-7,8-dihydro-6H-pyrazolo[1,5-a]pyrrolo[2,3-e]pyrimidine-6-carboxamide] |
| 100 to 1000 | C[C@@H](N)COc1cc(NC(=O)N2C[C@@](C)(C(F)(F)F)c3c2cnc2cc(Cl)nn32)cn(C(F)F)c1=O [compound 109, (R)-N-(5-((R)-2-aminopropoxy)-1-(difluoromethyl)-6-oxo-1,6-dihydropyridin-3-yl)-2-chloro-8-methyl-8-(trifluoromethyl)-7,8-dihydro-6H-pyrazolo[1,5-a]pyrrolo[2,3-e]pyrimidine-6-carboxamide] |
| 10 to 100 | C[C@@]1(C(F)(F)F)CN(C(=O)Nc2cc(C(F)F)ncn2)c2cnc3cc(Cl)nn3c21 [compound 106, (R)-2-chloro-N-(6-(difluoromethyl)pyrimidin-4-yl)-8-methyl-8-(trifluoromethyl)-7,8-dihydro-6H-pyrazolo[1,5-a]pyrrolo[2,3-e]pyrimidine-6-carboxamide] |
